Measured values published in patent publication US10863742B2, “Herbicide combinations” (Bayer CropScience Aktiengesellschaft, priority 2016, dated 2020).

Assays:
Assay in all cases: Greenhouse early post-emergence weed control trial
Type in all cases: in vivo
[1] = tested on: Pharbitis purpurea (PHBPU); settings: Ipomoea purpurea, 480 h; visual weed control 20 DAA, scale 0-100, early post-emergence BBCH 10-11; g ai/ha: diflufenican 50, pyroxasulfone 25, metribuzin 50, combination 50 + 25 + 50; read-out: % Efficacy against various weeds, PHBPU
Experimental: (§1) The following data are the results of a greenhouse investigation in which the herbicide combination according to the present invention was tested against various monocotyledonous and dicotyledonous weeds after an early-post emergence application (BBCH 10-11).
(§2) For this early post-emergent trial seeds of the above mentioned species were sown in 7 cm jiffy pots containing standard soil (14.7% sand, 19.9% clay, 65.4% silt and 1.8% organic matter) covered with 0,5 cm depth of sandy soil and lightly irrigated from above. The pots were placed in a glasshouse (with conditions of 16 hour day and 8 hour night, 21° C. day and 12° C. night and 60% relative humidity) and irrigated from above to allow the seeds to germinate and grow. Once they had reached the required growth stage BBCH 10-11 the propagated plants were treated with the herbicides. The herbicides were applied in a spray volume of 300 l water/ha using a flat fan nozzle XR 8001 at a pressure of 1.8 bar. After the application and air drying the pots were placed back into the glasshouse and allowed to grow on. The pots were irrigated via flood irrigation as required for good plant growth.
(§3) Visual percent of weed control (4 replicates) was rated 20 days after herbicide applications (DAA) on a scale of 0-100. A rating of 0 is defined as no control and 100 as complete control.
(§4) According to Colby synergistic effects of herbicidal active ingredients are indicated if the measured efficacy is higher than the expected one calculated according to his formula for 3-way mixtures: E=(A+B+C)−(A×B+A×C+B×C)/100+(A×B×C)/10000

[2] = tested on: Matricaria inodora (MATIN); settings: Tripleurospermum inodorum, 480 h; visual weed control 20 DAA, scale 0-100, early post-emergence BBCH 10-11; g ai/ha: diflufenican 50, pyroxasulfone 25, metribuzin 50, combination 50 + 25 + 50; read-out: % Efficacy against various weeds, MATIN
Experimental: as §1, §2, §3, §4

Lamium purpureum (LAMPU) = settings: 480 h, visual weed control 20 DAA, scale 0-100, early post-emergence BBCH 10-11, g ai/ha: diflufenican 50, pyroxasulfone 25, metribuzin 50, combination 50 + 25 + 50, read-out: % Efficacy against various weeds, LAMPU
Experimental: as §1, §2, §3, §4

Lolium rigidum (LOLRI) = settings: 480 h, visual weed control 20 DAA, scale 0-100, early post-emergence BBCH 10-11, g ai/ha: diflufenican 50, pyroxasulfone 25, metribuzin 50, combination 50 + 25 + 50, read-out: % Efficacy against various weeds, LOLRI
Experimental: as §1, §2, §3, §4

Veronica persica (VERPE) = settings: 480 h, visual weed control 20 DAA, scale 0-100, early post-emergence BBCH 10-11, g ai/ha: diflufenican 50, pyroxasulfone 25, metribuzin 50, combination 50 + 25 + 50, read-out: % Efficacy against various weeds, VERPE
Experimental: as §1, §2, §3, §4

[3] = tested on: Polygonum convolvulus (POLCO); settings: Fallopia convolvulus, 480 h; visual weed control 20 DAA, scale 0-100, early post-emergence BBCH 10-11; g ai/ha: diflufenican 50, pyroxasulfone 25, metribuzin 50, combination 50 + 25 + 50; read-out: % Efficacy against various weeds, POLCO
Experimental: as §1, §2, §3, §4

## O=C(Nc1ccc(F)cc1F)c1cccnc1Oc1cccc(C(F)(F)F)c1 [Diflufenican, diflufenican]
[1]
  Emax: 18%
[2]
  Emax: 1%
Lamium purpureum (LAMPU)
  Emax: 10%
Lolium rigidum (LOLRI)
  Emax: 2%
Veronica persica (VERPE)
  Emax: 18%
[3]
  Emax: 13%

## CSc1nnc(C(C)(C)C)c(=O)n1N [Metribuzin, metribuzin]
[1]
  Emax: 5%
[2]
  Emax: 59%
Lamium purpureum (LAMPU)
  Emax: 95%
Lolium rigidum (LOLRI)
  Emax: 6%
Veronica persica (VERPE)
  Emax: 70%
[3]
  Emax: 1%

## Cn1nc(C(F)(F)F)c(CS(=O)(=O)C2=NOC(C)(C)C2)c1OC(F)F [Pyroxasulfon, pyroxasulfone]
[1]
  Emax: 10%
[2]
  Emax: 5%
Lamium purpureum (LAMPU)
  Emax: 5%
Lolium rigidum (LOLRI)
  Emax: 29%
Veronica persica (VERPE)
  Emax: 5%
[3]
  Emax: 0%
